Four molecules from ChEMBL document CHEMBL4219252, “Synthesis, antimycobacterial activity and influence on mycobacterial InhA and PknB of 12-membered cyclodepsipeptides” (Bioorg Med Chem, 2018) can be followed below.

For orientation: MIC means the lowest concentration found to suppress growth.

Format in all cases: functional, variant bovis BCG
Experiment [1] relates to Mycobacterium tuberculosis. As to the kind of experiment: Antimycobacterial activity against wild type Mycobacterium bovis BCG harboring pATB45 after 48 hrs by resazurin microtiter assay.
For experiment [2], the system named is Mycobacterium tuberculosis. The experiment can be described thus: Antimycobacterial activity against Mycobacterium bovis BCG harboring pATB45::inhA after 48 hrs by resazurin microtiter assay.
The test system of experiment [3] is Mycobacterium tuberculosis. The experiment can be described thus: Ratio of MIC for Mycobacterium bovis BCG harboring pATB45::inhA to MIC for Mycobacterium bovis BCG harboring pATB45.
Where [4] appears, read: Mycobacterium tuberculosis, variant bovis BCG, 48 h, read-out: MIC.

Each structure is given as a SMILES string. ≈ marks a conversion by molar mass, not a printed value.

`C[C@H]1OC(=O)COC(=O)CCC(Cc2ccccc2)NC(=O)[C@H]1NC(=O)OC(C)(C)C` (stereo in doubt; form 1): the MIC in experiment [1] was found to be 62.5 µM (≈ 27.2 µg/mL); in experiment [2], 125 µM (≈ 54.3 µg/mL). Also, in experiment [3], the Ratio was determined as 2.

With `C[C@H]1OC(=O)COC(=O)CCC(Cc2ccccc2)NC(=O)[C@H]1NC(=O)OC(C)(C)C` (stereo in doubt; form 2), the minimal inhibitory concentration (MIC) in experiment [1] and in experiment [2] was 7.8 µM (≈ 3.39 µg/mL) each time. Also, in experiment [3], the Ratio was 1.

Turning to `C[C@H]1OC(=O)CCC(Cc2ccccc2)NC(=O)[C@@H](NC(=O)c2ncccc2O)[C@@H](C)OC1=O` (some centres not stated), the MIC in experiment [1] (setting [4]) and in experiment [2] (setting [4]) was 62.5 µM (≈ 29.3 µg/mL) each time. Further, the Ratio in experiment [3] came to 1.

Take `NNC(=O)c1ccncc1` [ISONIAZID]: the minimal inhibitory concentration (MIC) in experiment [1] (setting [4]) came out at 0.8 µM (≈ 0.11 µg/mL); in experiment [2] (setting [4]) it was 12.5 µM (≈ 1.71 µg/mL). Further, the Ratio in experiment [3] worked out at 15.6.
